# Reference: patent US8865675B2, “Compositions and methods for silencing apolipoprotein B” (Protiva Biotherapeutics, Inc., priority 2010, dated 2014)
# Columns and labels:
# liver ApoB mRNA = assay: Liver ApoB mRNA knockdown after IV SNALP administration, branched DNA (QuantiGene) assay relative to GAPDH; type: in vivo, Balb/c mice; settings: for KD50 compared to SNALP containing the C2K benchmark cationic lipid: 48 h (FIG. 2, FIG. 3); for ApoB silencing activity compared to SNALP containing C2K when administered at the same dose: 0.033 or 0.05 mg/kg IV, 48 h (Table 6); for ApoB knockdown relative to PBS control (%): 1:57 SNALP with ApoB-10164 siRNA, ApoB:GAPD, 48 h, n = 3
# Experimental: (§1) For dose response studies, SNALP formulations were administered by IV injection at 0.01 mg/kg, 0.033 mg/kg, or 0.1 mg/kg into female Balb/c mice (n=3 per group). Liver ApoB mRNA levels were evaluated at 48 hours after SNALP administration by a branched DNA assay (QuantiGene assay) to assess ApoB mRNA relative to the housekeeping gene GAPDH.
# as §1, with “Each” for “For dose response studies,”, “formulation (6:1 L:D) was” for “formulations were”, “intravenous (IV)” for “IV”, “at” for “at 0.01 mg/kg, 0.033 mg/kg, or”
# SNALP formulations were administered by IV injection at 0.05 mg/kg into female Balb/c mice (n=3 per group). Liver ApoB mRNA levels were evaluated at 48 hours after SNALP administration by a branched DNA assay (QuantiGene assay) to assess ApoB mRNA relative to the housekeeping gene GAPDH.
# For these dose response studies, SNALP formulations were administered by IV injection at 0.05, 0.10, or 0.25 mg/kg for DLinDMA and at 0.01, 0.025, or 0.05 mg/kg for C2K or MC3 into female Balb/c mice (n=4 per group). Liver ApoB mRNA levels were evaluated at 48 hours after SNALP administration (Error bars=SD).
# SNALP formulations were administered by IV injection at 0.033 mg/kg or at 0.05 mg/kg into Balb/c mice (n=3 per group). Liver ApoB mRNA levels were evaluated at 48 hours after SNALP administration by a branched DNA assay (QuantiGene assay) to assess ApoB mRNA relative to the housekeeping gene GAPDH.
# [1] = Tolerability assessments of SNALP in mice (liver enzymes, body weight, neutrophil to lymphocyte ratio etc.); type: in vivo
# [2] = 1:57 SNALP, 0.01, 0.033 or 0.1 mg/kg IV, female Balb/c mice, 48 h (FIG. 1, FIG. 3)
# [3] = 1:57 SNALP, 0.01, 0.033 or 0.1 mg/kg IV, female Balb/c mice
compound,measurement,setting,value
"CCCCC/C=C\C/C=C\CCCCCCCCC(CCCCCCCC/C=C\C/C=C\CCCCC)OC(=O)CCCN(C)C [Compound 1, (6Z,9Z,28Z,31Z)-heptatriaconta-6,9,28,31-tetraen-19-yl 4-(dimethylamino)butanoate]","potency versus the corresponding DLinDMA or C2K SNALP formulations, comparison of KD50 values","liver ApoB mRNA; 1:57 SNALP containing siApoB-8 or siApoB-10, female Balb/c mice, 48 h (FIG. 6)",more potent
same,ApoB silencing activity compared to SNALP containing the C2K benchmark cationic lipid,liver ApoB mRNA; [2],improved ApoB silencing activity
same,KD50 compared to SNALP containing the C2K benchmark cationic lipid,liver ApoB mRNA; [3],substantially lower KD50 values
same,ApoB silencing activity compared to SNALP containing C2K when administered at the same dose,"liver ApoB mRNA; 1:57 SNALP, Balb/c mice",unexpectedly improved ApoB silencing activity
same,potency in silencing ApoB expression in vivo compared to SNALP containing DLin-C2K-DMA (C2K) or DLinDMA,liver ApoB mRNA; 1:57 lipid particle,unexpectedly more potent
"CC/C=C\C/C=C\C/C=C\CCCCCCCCC(CCCCCCCC/C=C\C/C=C\C/C=C\CC)OC(=O)CCCN(C)C [Compound 4, LenMC3]",ApoB silencing activity compared to SNALP containing the C2K benchmark cationic lipid,liver ApoB mRNA; [2],improved ApoB silencing activity
same,KD50 compared to SNALP containing the C2K benchmark cationic lipid,liver ApoB mRNA; [3],substantially lower KD50 values
same,ApoB silencing activity compared to SNALP containing C2K when administered at the same dose,"liver ApoB mRNA; 1:57 SNALP, Balb/c mice",unexpectedly improved ApoB silencing activity
"CCCCC/C=C\C/C=C\C/C=C\CCCCCC(CCCCC/C=C\C/C=C\C/C=C\CCCCC)OC(=O)CCCN(C)C [Compound 8, γ-LenMC3]",ApoB silencing activity compared to SNALP containing the C2K benchmark cationic lipid,liver ApoB mRNA; [2],improved ApoB silencing activity
same,KD50 compared to SNALP containing the C2K benchmark cationic lipid,liver ApoB mRNA; [3],substantially lower KD50 values
same,ApoB silencing activity compared to SNALP containing C2K when administered at the same dose,"liver ApoB mRNA; 1:57 SNALP, Balb/c mice",unexpectedly improved ApoB silencing activity
"CCCCC/C=C\C/C=C\CCCCCCCCC(CCCCCCCC/C=C\C/C=C\CCCCC)OC(=O)N(C)CCCN(C)C [Compound 10, MC3MC]",ApoB knockdown relative to PBS control (%),"liver ApoB mRNA; 0.033 mg/kg IV, Balb/c mice",−50%
"CCCCC/C=C\C/C=C\CCCCCCCCC(CCCCCCCC/C=C\C/C=C\CCCCC)OCCCN(C)C [Compound 13, 3-((6Z,9Z,28Z,31Z)-heptatriaconta-6,9,28,31-tetraen-19-yloxy)-N,N-dimethylpropan-1-amine]",ApoB silencing activity compared to SNALP containing the C2K benchmark cationic lipid,"liver ApoB mRNA; 1:57 SNALP, 0.05 mg/kg IV, female Balb/c mice, 48 h (FIG. 5)",unexpectedly improved ApoB silencing activity
same,ApoB silencing activity compared to SNALP containing C2K when administered at the same dose,"liver ApoB mRNA; 1:57 SNALP, Balb/c mice",unexpectedly improved ApoB silencing activity
"CCCCC/C=C\C/C=C\CCCCCCCCC(CCCCCCCC/C=C\C/C=C\CCCCC)OCCCCN(C)C [Compound 15, MC4 Ether]",ApoB silencing activity compared to SNALP containing C2K when administered at the same dose,"liver ApoB mRNA; 1:57 SNALP, Balb/c mice",unexpectedly improved ApoB silencing activity
"CCCCC/C=C\C/C=C\CCCCCCCCCC(CCCCCCC/C=C\C/C=C\CCCCC)OC(=O)N(CCCCCC)CCCN(C)C (stereo not shown) [Compound 27, (6Z,9Z,28Z,31Z)-heptatriaconta-6,9,28,31-tetraen-18-yl 3-(dimethylamino)propyl(hexyl)carbamate]",ApoB silencing activity compared to SNALP containing C2K when administered at the same dose,"liver ApoB mRNA; 1:57 SNALP, Balb/c mice",unexpectedly improved ApoB silencing activity
"CC/C=C\CCCN(CCCN(C)C)C(=O)OC(CCCCCCC/C=C\C/C=C\CCCCC)CCCCCCCCC/C=C\C/C=C\CCCCC (stereo not shown) [Compound 28, (6Z,9Z,28Z,31Z)-heptatriaconta-6,9,28,31-tetraen-18-yl 3-(dimethylamino)propyl((Z)-hept-4-enyl)carbamate]",ApoB silencing activity compared to SNALP containing C2K when administered at the same dose,"liver ApoB mRNA; 1:57 SNALP, Balb/c mice",unexpectedly improved ApoB silencing activity
"CC/C=C\C/C=C\C/C=C\CCCCCCCCC(CCCCCCCC/C=C\C/C=C\C/C=C\CC)OCCCCN(C)C [Compound 35, 4-((3Z,6Z,9Z,28Z,31Z,34Z)-heptatriaconta-3,6,9,28,31,34-hexaen-19-yloxy)-N,N-dimethylbutan-1-amine]",ApoB silencing activity compared to SNALP containing C2K when administered at the same dose,"liver ApoB mRNA; 1:57 SNALP, Balb/c mice",unexpectedly improved ApoB silencing activity
"CCC1CC1CC1CC1CC1CC1CCCCCCCCC1(CCCCCCCCC2CC2CC2CC2CC2CC2CC)OCC(CCN(C)C)O1 (stereo not shown) [Compound 46, CP-DLen-C2K-DMA]",potency in silencing ApoB mRNA expression,"liver ApoB mRNA; 1:57 SNALP, 0.01, 0.033 or 0.1 mg/kg IV, female Balb/c mice, 48 h (FIG. 3)",considerable potency
same,body weight loss compared to mice administered SNALP containing C2K,"[1]; mouse, in vivo",less body weight loss
same,increase in liver enzyme levels compared to mice administered SNALP containing C2K,"[1]; mouse, in vivo",lower increase in liver enzyme levels
same,neutrophil to lymphocyte ratio compared to mice administered SNALP containing C2K,"[1]; mouse, in vivo",more favorable neutrophil to lymphocyte ratio
same,toxicity profile compared to SNALP containing C2K,[1]; various tolerability assessments in vivo,unexpectedly more favorable toxicity profile
"(6Z,9Z,28Z,31Z)-heptatriaconta-6,9,28,31-tetraen-18-yl 2-(dimethylamino)ethyl(ethyl)carbamate [Compound 29]",ApoB knockdown relative to PBS control (%),"liver ApoB mRNA; 0.05 mg/kg IV, Balb/c mice",−59%
"siApoB-10: APOB siRNA of sense strand SEQ ID NO: 4 and antisense strand SEQ ID NO: 11 with 2′OMe nucleotides (sense AGNGNCANCACACNNAANACC; antisense UAUUCAGUGUGAUGACACUUG; 2'OMe nucleotides, chemistry not fully specified)",silencing activity of more highly 2′OMe-modified APOB siRNA relative to siApoB-8,"liver ApoB mRNA; modifications increased from 7 in siApoB-8 to 13 in siApoB-10, 1:57 SNALP, Balb/c mice, 48 h (FIG. 6)",does not decrease activity
